Source: patent US4459304A, “Combating pests with 2-anilino-3,5-dinitro-benzotrifluorides” (Bayer Aktiengesellschaft, priority 1977, dated 1984)

Key:
Format in all cases: in vivo
[1] = test system: Ceratitis capitata (eggs); test: Development-inhibiting action, Ceratitis capitata (eggs); details: concentration 10 ppm in synthetic feed, eggs until flies slipped
Excerpt: (§1) Examples 8 and 9, which are given below, show the arthropod development-inhibiting action of the compounds according to the invention without implying a limitation in respect of the breadth of action of these compounds. In the experiments, the morphological changes, such as half-pupated insects, incompletely slipped larvae or caterpillars, defective wings, pupal cuticula in the case of imagos and the like are rated as malformations over the entire stated development of the test insects. The sum of the morphological malformations, together with the insects killed during the sloughing or the metamorphosis, is given in percent of the test insects.
Test insect: Ceratitis capitata (eggs), 20 specimens
Feed: Synthetic feed (carrot powder with yeast powder)
Solvent: 20 parts by weight of acetone
Emulsifier: 5 parts by weight of alkylaryl polyglycol ether
To produce a suitable preparation of active compound, 4 parts by weight of active compound were mixed with the stated amount of solvent, emulsifier and sufficient water to produce a 1% strength mixture which was diluted with water to the desired concentration.
The eggs of the test insects were placed on a dish with synthetic feed, into which the selected concentration of the active compound mixture was incorporated so that the stated amount of active compound in ppm (parts per million) was obtained. The development was observed until the flies slipped.
As a control, synthetic feed mixed only with solvent and emulsifier of the stated concentration was presented.

[2] = test system: Laphygma exempta (eggs); test: Development-inhibiting action, Laphygma exempta (eggs); details: concentration 10 ppm, up to larvae of third stage
Excerpt: as §1
Test insect: Laphygma exempta (eggs)
Solvent: 10 parts by weight of acetone
(§2) Emulsifier: 1 part by weight of alkylaryl polyglycol ether
To produce a suitable preparation of active compound, 2 parts by weight of active compound were mixed with the stated amount of solvent, emulsifier and sufficient water to produce a 1% strength mixture, which was diluted with water to the desired concentration.
Deposited eggs, at the rate of 30 eggs on a filter-paper, were moistened with 1 ml of active compound solution of the stated concentration in ppm (parts per million) and were observed, in plastic boxes, until the young larvae slipped. The young larvae were fed with corn leaves which had been sprayed with the stated concentration of active compound solution on the same day as the eggs.
The development of the test insects was observed up to the larvae of the third stage.
As a control, deposited eggs were treated in the same manner with solvent and emulsifier of the corresponding concentration, and feeding was carried out with corn leaves.

[3] = test system: two-spotted spider mite (Tetranychus urticae); test: Tetranychus test (resistant), degree of destruction of spider mites on bean plants; details: 48 h, after 2 days; for mortality at 0.0001 %: active compound concentration 0.0001%; for mortality at 0.001 %: active compound concentration 0.001%
Experimental: (§3) Solvent: 3 parts by weight of dimethylformamide
as §2
To produce a suitable preparation of active compound, 1 part by weight of the active compound was mixed with the stated amount of solvent and the stated amount of emulsifier and the concentrate was diluted with water to the desired concentration.
Bean plants (Phaseolus vulgaris) which were heavily infested with the two-spotted spider mite (Tetranychus urticae) in all stages of development were sprayed with the preparation of the active compound until dripping wet.
After the specified periods of time, the degree of destruction was determined as a percentage: 100% meant that all of the spider mites were killed whereas 0% meant that none of the spider mites were killed.

[4] = test system: mustard beetle larvae (Phaedon cochleariae); test: Phaedon larvae test, degree of destruction on cabbage leaves; details: 72 h, after 3 days; for mortality at 0.001 %: active compound concentration 0.001%; for mortality at 0.01 %: active compound concentration 0.01%
Experimental: as §3
Emulsifier: 1 part by weight of alkylarly polyglycol ether
To produce a suitable preparation of active compound, 1 part by weight of the active compound was mixed with the stated amount of solvent containing the stated amount of emulsifier and the concentrate was diluted with water to the desired concentration.
Cabbage leaves (Brassica oleracea) were sprayed with the preparation of the active compound until dripping wet and were then infested with mustard beetle larvae (Phaedon cochleariae).
After the specified periods of time, the degree of destruction was determined in %: 100% meant that all of the beetle larvae had been killed whereas 0% meant that none of the beetle larvae had been killed.

Compound | inhibition at 10 ppm [1] [%] | inhibition at 10 ppm [2] [%] | mortality at 0.0001 % [3] [%] | mortality at 0.001 % [3] [%] | mortality at 0.001 % [4] [%] | mortality at 0.01 % [4] [%]
O=[N+]([O-])c1cc([N+](=O)[O-])c(Nc2ccc(OC(F)(F)F)c(Cl)c2)c(C(F)(F)F)c1 [Compound 9] | 100 | 100 | 100 | 100 |  | 
O=[N+]([O-])c1cc([N+](=O)[O-])c(Nc2cccc(SC(F)(F)F)c2)c(C(F)(F)F)c1 [Compound 25] |  |  | 95 | 100 |  | 
O=[N+]([O-])c1cc([N+](=O)[O-])c(Nc2c(Cl)cccc2Cl)c(C(F)(F)F)c1 [A, reference compound] |  | 20 | 0 | 98 |  | 
O=[N+]([O-])c1cc([N+](=O)[O-])c(Nc2ccc(SC(F)(F)F)cc2)c(C(F)(F)F)c1 [Compound 4] |  |  | 99 | 100 | 50 | 100
O=[N+]([O-])c1cc([N+](=O)[O-])c(Nc2ccc(OC(F)(F)F)cc2Cl)c(C(F)(F)F)c1 [Compound 13, 2-(2-chloro-4-trifluoromethoxy-anilino)-3,5-dinitro-benzotrifluoride] | 100 | 100 | 100 | 100 | 85 | 100
O=[N+]([O-])c1cc([N+](=O)[O-])c(Nc2c(Cl)cc(S(=O)(=O)C(F)(F)F)cc2Cl)c(C(F)(F)F)c1 [Compound 8] | 100 |  |  |  |  | 
O=[N+]([O-])c1cc([N+](=O)[O-])c(Nc2ccc(S(=O)(=O)C(F)(F)F)cc2Cl)c(C(F)(F)F)c1 [Compound 7] | 100 |  |  |  |  | 
O=[N+]([O-])c1cc([N+](=O)[O-])c(Nc2ccc3c(c2)C(F)(F)OC(F)(F)O3)c(C(F)(F)F)c1 [Compound 2] |  |  | 100 | 100 |  | 
O=[N+]([O-])c1cc([N+](=O)[O-])c(Nc2cccc(OC(F)(F)F)c2)c(C(F)(F)F)c1 [Compound 24] |  |  | 95 | 100 |  | 
O=[N+]([O-])c1cc([N+](=O)[O-])c(Nc2cc(Cl)ccc2Cl)c(C(F)(F)F)c1 [B, reference compound] |  |  |  |  | 0 | 100
CSc1ccc(Nc2c([N+](=O)[O-])cc([N+](=O)[O-])cc2C(F)(F)F)c(C(F)(F)F)c1 [Compound 10] |  |  | 50 | 98 |  | 
O=[N+]([O-])c1cc([N+](=O)[O-])c(Nc2cc(SC(F)(F)F)ccc2Cl)c(C(F)(F)F)c1 [Compound 22] |  |  |  | 100 |  | 
O=[N+]([O-])c1cc([N+](=O)[O-])c(Nc2ccccc2SC(F)(F)F)c(C(F)(F)F)c1 [Compound 21] |  |  | 50 | 100 |  | 
O=[N+]([O-])c1cc([N+](=O)[O-])c(Nc2ccc(OC(F)(F)F)cc2)c(C(F)(F)F)c1 [Compound 1, 2-(4-trifluoromethoxy-anilino)-3,5-dinitro-benzotrifluoride] | 100 |  | 70 | 100 |  | 
O=[N+]([O-])c1cc([N+](=O)[O-])c(Nc2cc(S(=O)(=O)C(F)(F)F)ccc2Cl)c(C(F)(F)F)c1 [Compound 14] |  |  |  |  | 80 | 100
